Measured values taken from US20230174649A1, “PHARMACEUTICAL COMPOSITIONS CONTAINING ANTI-CD47 ANTIBODIES” (I-MAB BIOPHARMA US LIMITED, priority 2020, published 2023).
Values joined by “and” are separate entries in the source; they are usually repeats but may differ in a detail not shown here. Equal entries are not always repeated.

How the values were obtained:
Type in all cases: cell-based, Human
[1] = system: CD47; experiment: FACS analysis of expression level of CD47 on tumor cell surface; settings: Toledo cells; for Mean Fluorescence Intensity (MFI) CD47: 12 hours
Experimental: (§1) For FACS analysis, on the day of analysis (day 1), Toledo cells were seeded into 96 well plate and cultured at a density of 0.2×10^6 cells/well. Then the cells were treated with the selected small molecule therapeutic agents for 12 hours.
(§2) On day 2, cells were harvested, washed twice and then re-suspended in 100 uL FACS buffer subject to FACS analysis. For detection of the expression of calreticulin and CD47, cells were incubated with anti-calreticulin antibody and commercially available anti-CD47 antibody (BD Biosciences, Catalog number: 561249) in dark at 4° C. for 30 mins.
(§3) Then, the cells were subject to FACS analysis. Data was acquired and analyzed.

[2] = system: Toledo Cells; experiment: FACS-based phagocytosis assay, macrophages cocultured with Toledo cells
Experimental: FACS-based phagocytosis assays were performed to evaluate the phagocytic abilities of macrophages.
Toledo Cells (a tumor cell line, as a target) were labelled with CellTrace™ Far Red and plated into 96-well plate at a density of 0.15×10^6 cells/well for 12 hours. The Macrophages were prepared as discussed above and then labelled with CellTrace Violet. Next, the macrophages were added into the plate as an effector at an effector:target (Toledo) ratio of 1:3, giving a final density of macrophages at 0.05×10^6 cells/well. Macrophages and tumor cells were cocultured for 2-6 h at 37° C. in the presence of the indicated treatments (small molecule therapeutic agents, CD47 antibody, CD20 antibody or combinations). The incubation time depending on the phagocytosis rate, expecting phagocytosis of 5-20% cells.
Then, cells were acquired and data were analyzed.

[3] = system: macrophages; experiment: Macrophage Viability Assay (CellTiter-Glo); settings: for Macrophage viability (CellTiter-Glo Luminescent Cell Viability Assay): 16 hours, three replicate lines
Experimental: Then, the monocytes isolated by MACS were subsequently cultured in fresh complete medium supplemented with recombinant human granulocyte-macrophage colony-stimulating factor GM-CSF (50 ng/ml) and human recombinant IL-4 (35 ng/ml) to activate differentiated macrophages. After 6 days of culture (on day 7), cells were harvested, pooled together and counted for next use.
The cells from Example 2 were plated into a 96-well flat bottom plate at a density of 0.05×10^6 cells/well. After 2 hours of incubation, the macrophages were well attached to the plate. Then selected small molecule therapeutic agents were added to the well and cocultured for 16 hours. On day 8, macrophage viability was assessed by CellTiter-Glo® Luminescent Cell Viability Assay, according to the manufacture's instruction.

[4] = system: Calreticulin; experiment: FACS analysis of expression level of calreticulin on tumor cell surface; settings: Toledo cells; for Mean Fluorescence Intensity (MFI) Calreticulin: 12 hours
Experimental: as §1, §2, §3

[5] = Cpd 0.0016 uM, T4J = 0, R = 0.01 ug/ml
[6] = Cpd 0.0016 uM, T4J = 0.1 ug/ml, R = 0
[7] = Cpd 0.0016 uM, T4J = 0.1 ug/ml, R = 0.01 ug/ml
[8] = Cpd 0.008 uM, T4J = 0, R = 0.01 ug/ml
[9] = Cpd 0.008 uM, T4J = 0.1 ug/ml, R = 0
[10] = Cpd 0.008 uM, T4J = 0.1 ug/ml, R = 0.01 ug/ml
[11] = Cpd 0.04 uM, T4J = 0, R = 0.01 ug/ml
[12] = Cpd 0.04 uM, T4J = 0.1 ug/ml, R = 0
[13] = Cpd 0.04 uM, T4J = 0.1 ug/ml, R = 0.01 ug/ml
[14] = Cpd 0.2 uM, T4J = 0, R = 0.01 ug/ml
[15] = Cpd 0.2 uM, T4J = 0.1 ug/ml, R = 0
[16] = Cpd 0.2 uM, T4J = 0.1 ug/ml, R = 0.01 ug/ml
[17] = Cpd 1 uM, T4J = 0, R = 0.01 ug/ml
[18] = Cpd 1 uM, T4J = 0.1 ug/ml, R = 0
[19] = Cpd 1 uM, T4J = 0.1 ug/ml, R = 0.01 ug/ml

Which results are given for `Nc1cccc2c1CN(C1CCC(=O)NC1=O)C2=O` (centres unmarked) [Lenalidomide]?
Mean Fluorescence Intensity (MFI) CD47 ([1]; 0.008 uM): 8706; Mean Fluorescence Intensity (MFI) CD47 ([1]; 0.04 uM): 8881; Mean Fluorescence Intensity (MFI) CD47 ([1]; 0.2 uM): 8730; Mean Fluorescence Intensity (MFI) CD47 ([1]; 1 uM): 8985; Mean Fluorescence Intensity (MFI) CD47 ([1]; 5 uM): 8443; macrophage phagocytosis (untreated = 1.00) ([2]; Cpd 0.0016 uM, T4J = 0, R = 0): 1.02; macrophage phagocytosis (untreated = 1.00) [2, 5]: 1.46; macrophage phagocytosis (untreated = 1.00) [2, 6]: 2.48; macrophage phagocytosis (untreated = 1.00) [2, 7]: 3.10; macrophage phagocytosis (untreated = 1.00) ([2]; Cpd 0.008 uM, T4J = 0, R = 0): 1.03; macrophage phagocytosis (untreated = 1.00) [2, 8]: 1.47; macrophage phagocytosis (untreated = 1.00) [2, 9]: 2.57; macrophage phagocytosis (untreated = 1.00) [2, 10]: 3.04; macrophage phagocytosis (untreated = 1.00) ([2]; Cpd 0.04 uM, T4J = 0, R = 0): 1.08; macrophage phagocytosis (untreated = 1.00) [2, 11]: 1.46; macrophage phagocytosis (untreated = 1.00) [2, 12]: 2.56; macrophage phagocytosis (untreated = 1.00) [2, 13]: 3.06; macrophage phagocytosis (untreated = 1.00) ([2]; Cpd 0.2 uM, T4J = 0, R = 0): 0.96; macrophage phagocytosis (untreated = 1.00) [2, 14]: 1.51; macrophage phagocytosis (untreated = 1.00) [2, 15]: 2.61; macrophage phagocytosis (untreated = 1.00) [2, 16]: 3.04; macrophage phagocytosis (untreated = 1.00) ([2]; Cpd 1 uM, T4J = 0, R = 0): 1.01; macrophage phagocytosis (untreated = 1.00) [2, 17]: 1.47; macrophage phagocytosis (untreated = 1.00) [2, 18]: 2.62; macrophage phagocytosis (untreated = 1.00) [2, 19]: 3.07; phagocytic ability of macrophages ([2]; triple combination: T4J, Rituximab and the small molecule): does not show the synergistic effects; Macrophage viability (CellTiter-Glo Luminescent Cell Viability Assay) ([3]; Cpd 0.002 uM): 5972 and 5872 and 5776; Macrophage viability (CellTiter-Glo Luminescent Cell Viability Assay) ([3]; Cpd 0.008 uM): 5992 and 5996 and 6180; Macrophage viability (CellTiter-Glo Luminescent Cell Viability Assay) ([3]; Cpd 0.04 uM): 6152 and 6132 and 5892; Macrophage viability (CellTiter-Glo Luminescent Cell Viability Assay) ([3]; Cpd 0.2 uM): 6216 and 6088 and 6456; Macrophage viability (CellTiter-Glo Luminescent Cell Viability Assay) ([3]; Cpd 1 uM): 6016 and 6108 and 6088; Macrophage viability (CellTiter-Glo Luminescent Cell Viability Assay) ([3]; Cpd 5 uM): 5840 and 6236 and 6108; Macrophage viability (CellTiter-Glo Luminescent Cell Viability Assay) ([3]; Cpd 25 uM): 5432 and 5752 and 5744; Macrophage viability (CellTiter-Glo Luminescent Cell Viability Assay) ([3]; Cpd 50 uM): 5208 and 5124 and 5644; toxicity to macrophages ([3]; dose as high as 50 μM): showed toxicity; toxicity to macrophages ([3]; dose lower than 10 μM): little toxic; Mean Fluorescence Intensity (MFI) Calreticulin ([4]; 0.008 uM): 69.3; Mean Fluorescence Intensity (MFI) Calreticulin ([4]; 0.04 uM): 70.1; Mean Fluorescence Intensity (MFI) Calreticulin ([4]; 0.2 uM): 73.4; Mean Fluorescence Intensity (MFI) Calreticulin ([4]; 1 uM): 75.6; Mean Fluorescence Intensity (MFI) Calreticulin ([4]; 5 uM): 75.2

With `CC1(C)CCC(CN2CCN(c3ccc(C(=O)NS(=O)(=O)c4ccc(NCC5CCOCC5)c([N+](=O)[O-])c4)c(Oc4cnc5[nH]ccc5c4)c3)CC2)=C(c2ccc(Cl)cc2)C1` [Venetoclax] as the molecule, how does the “Mean Fluorescence Intensity (MFI) CD47” value ([1]; 0.008 uM) read?
Its value is 7873.

And the “Mean Fluorescence Intensity (MFI) CD47” value ([1]; 0.04 uM)?
The value was 6201.

What about the “Mean Fluorescence Intensity (MFI) CD47” value ([1]; 0.2 uM) of the same molecule?
The value was 5206.

What about the “Mean Fluorescence Intensity (MFI) CD47” value ([1]; 1 uM) of the same molecule?
Its value is 4232.

And the “Mean Fluorescence Intensity (MFI) CD47” value ([1]; 5 uM)?
Its value is 3540.

What about the “inhibition of CD47 expression” value ([1]; dose of 5 μM) of the same molecule?
The value was about 50%.

And the “macrophage phagocytosis (untreated = 1.00)” value (“macrophage phagocytosis” for short) ([2]; Cpd 0.0016 uM, T4J = 0, R = 0)?
The value was 1.00.

What about the “macrophage phagocytosis” value [2, 5] of the same molecule?
Its value is 1.45.

And the “macrophage phagocytosis” value [2, 6]?
The value was 2.62.

What about the “macrophage phagocytosis” value [2, 7] of the same molecule?
Its value is 3.23.

And the “macrophage phagocytosis” value ([2]; Cpd 0.008 uM, T4J = 0, R = 0)?
The value was 1.10.

And the “macrophage phagocytosis” value [2, 8]?
The value was 1.54.

And the “macrophage phagocytosis” value [2, 9]?
Its value is 2.59.

And the “macrophage phagocytosis” value [2, 10]?
Its value is 3.30.

What about the “macrophage phagocytosis” value ([2]; Cpd 0.04 uM, T4J = 0, R = 0) of the same molecule?
Its value is 1.17.

What about the “macrophage phagocytosis” value [2, 11] of the same molecule?
The value was 1.82.

And the “macrophage phagocytosis” value [2, 12]?
Its value is 2.64.

And the “macrophage phagocytosis” value [2, 13]?
Its value is 3.37.

And the “macrophage phagocytosis” value ([2]; Cpd 0.2 uM, T4J = 0, R = 0)?
The value was 1.41.

And the “macrophage phagocytosis” value [2, 14]?
Its value is 1.93.

And the “macrophage phagocytosis” value [2, 15]?
The value was 2.81.

What about the “macrophage phagocytosis” value [2, 16] of the same molecule?
Its value is 3.64.

What about the “macrophage phagocytosis” value ([2]; Cpd 1 uM, T4J = 0, R = 0) of the same molecule?
Its value is 1.56.

What about the “macrophage phagocytosis” value [2, 17] of the same molecule?
Its value is 2.03.

What about the “macrophage phagocytosis” value [2, 18] of the same molecule?
Its value is 2.91.

And the “macrophage phagocytosis” value [2, 19]?
Its value is 3.65.

And the “Macrophage viability (CellTiter-Glo Luminescent Cell Viability Assay)” value (from here on “Macrophage viability”) ([3]; Cpd 0.002 uM)?
Its value is 5968 and 6024 and 5856.

What about the “Macrophage viability” value ([3]; Cpd 0.008 uM) of the same molecule?
Its value is 6148 and 6172 and 5912.

What about the “Macrophage viability” value ([3]; Cpd 0.04 uM) of the same molecule?
The value was 6288 and 6072 and 6264.

And the “Macrophage viability” value ([3]; Cpd 0.2 uM)?
Its value is 7260 and 6072 and 5756.

What about the “Macrophage viability” value ([3]; Cpd 1 uM) of the same molecule?
Its value is 6052 and 6020 and 6088.

What about the “Macrophage viability” value ([3]; Cpd 5 uM) of the same molecule?
The value was 5760 and 5660 and 6120.

And the “Macrophage viability” value ([3]; Cpd 25 uM)?
The value was 4696 and 4596 and 4776.

What about the “Macrophage viability” value ([3]; Cpd 50 uM) of the same molecule?
Its value is 1240 and 1132 and 1108.

And the “toxicity to macrophages” value ([3]; dose as high as 50 μM)?
Its value is “showed toxicity”.

And the “toxicity to macrophages” value ([3]; dose lower than 10 μM)?
Its value is “little toxic”.

And the “Mean Fluorescence Intensity (MFI) Calreticulin” value ([4]; 0.008 uM)?
Its value is 117.

And the “Mean Fluorescence Intensity (MFI) Calreticulin” value ([4]; 0.04 uM)?
Its value is 258.

And the “Mean Fluorescence Intensity (MFI) Calreticulin” value ([4]; 0.2 uM)?
The value was 471.

And the “Mean Fluorescence Intensity (MFI) Calreticulin” value ([4]; 1 uM)?
The value was 1123.

And the “Mean Fluorescence Intensity (MFI) Calreticulin” value ([4]; 5 uM)?
Its value is 2533.

What about the “increase of the expression level of calreticulin” value ([4]; dose of 5 μM) of the same molecule?
Its value is about 120 folds.
